According to ChEMBL document CHEMBL1201862, “PubChem BioAssay data set” (2004):
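Where inhibition never reached the appropriate level, the endpoint shown equals the highest concentration tested. Otherwise, values were interpolated linearly from a five-concentration, 48-hour dose response in 96-well plates. At the GI50, growth is halved.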 Activity calls are given as the source filed them. Cut-off read from the data, not from the text of the source: active = GI50 up to about 1.1 µM and inactive = higher.

Key:
Assay in all cases: growth of human tumour cells (NCI), 48 h
[1] = test system: 786-0
[2] = test system: A498
[3] = test system: A549
[4] = test system: ACHN
[5] = test system: CAKI-1
[6] = test system: CCRF-CEM
[7] = test system: COLO 205
[8] = test system: DLD-1
[9] = test system: DMS-114
[10] = test system: DMS-273
[11] = test system: EKVX
[12] = test system: HCC 2998
[13] = test system: HCT-116
[14] = test system: HCT-15
[15] = test system: HL-60
[16] = test system: HOP-62
[17] = test system: HOP-92
[18] = test system: HT-29
[19] = test system: IGROV-1
[20] = test system: K562
[21] = test system: KM-20L2
[22] = test system: KM12
[23] = test system: LXFL 529
[24] = test system: M14
[25] = test system: M19-MEL
[26] = test system: MOLT-4
[27] = test system: Malme-3M
[28] = test system: NCI-H226
[29] = test system: NCI-H23
[30] = test system: NCI-H460
[31] = test system: NCI-H522
[32] = test system: OVCAR-3
[33] = test system: OVCAR-4
[34] = test system: OVCAR-5
[35] = test system: OVCAR-8
[36] = test system: RPMI-8226
[37] = test system: RXF 393
[38] = test system: SF-268
[39] = test system: SF-295
[40] = test system: SF-539
[41] = test system: SK-MEL-28
[42] = test system: SK-MEL-2
[43] = test system: SK-OV-3
[44] = test system: SN12C
[45] = test system: SNB-19
[46] = test system: SNB-75
[47] = test system: SNB-78
[48] = test system: SR
[49] = test system: SW-620
[50] = test system: TK-10
[51] = test system: U-251
[52] = test system: UACC-257
[53] = test system: UACC-62
[54] = test system: UO-31
[55] = test system: BT-549
[56] = test system: DU-145
[57] = test system: Hs-578T
[58] = test system: LOX IMVI
[59] = test system: MCF7
[60] = test system: MDA-MB-231
[61] = test system: MDA-MB-435
[62] = test system: MDA-N
[63] = test system: NCI/ADR-RES
[64] = test system: PC-3
[65] = test system: SK-MEL-5
[66] = test system: T47D

Measured: GI50

CCc1cccc(C(C)CC)c1NC(=O)C(=O)C(CC(=O)Nc1ccc(Cl)c(Cl)c1)C(=O)OC (centres undefined)
inactive: [1] 80.9 µM | [2] > 100 µM | [3] 63.1 µM | [4] 9.71 µM | [5] 19.5 µM | [6] > 100 µM | [7] > 100 µM | [8] > 100 µM | [9] 36.8 µM | [10] 15.9 µM | [11] > 100 µM | [12] 93.3 µM | [13] > 100 µM | [15] > 100 µM | [16] 71.1 µM | [17] 16.7 µM | [18] 76 µM | [19] > 100 µM | [20] 9.79 µM | [21] 19.8 µM | [22] 41.5 µM | [23] 16.7 µM | [24] 57.1 µM | [25] 36.8 µM | [26] 71.3 µM | [27] > 100 µM | [28] > 100 µM | [29] > 100 µM | [30] > 100 µM | [31] 38.5 µM | [32] > 100 µM | [33] > 100 µM | [34] > 100 µM | [35] > 100 µM | [36] 43.4 µM | [37] > 100 µM | [38] 64 µM | [39] 30.4 µM | [40] > 100 µM | [41] > 100 µM | [42] > 100 µM | [43] > 100 µM | [44] > 100 µM | [45] > 100 µM | [46] 21 µM | [47] > 100 µM | [48] 66.1 µM | [49] 46.7 µM | [50] > 100 µM | [51] > 100 µM | [52] > 100 µM | [53] 3.59 µM | [54] 73.1 µM
20.2 µM: [14]

COc1cc2c3c(n(C)c(=O)c2cc1OC)-c1cc2c(cc1C3=O)OCO2
> 96.2 µM: [14]
inactive: [1] 16.9 µM | [2] 46.2 µM | [3] 55.1 µM | [55] > 86.9 µM | [5] 4.98 µM | [7] > 100 µM | [56] 12 µM | [11] 35.3 µM | [12] > 80.5 µM | [13] 6.35 µM | [15] 22 µM | [16] 1.87 µM | [17] 38.2 µM | [18] 46.5 µM | [57] > 80 µM | [19] 2.47 µM | [20] 6.87 µM | [22] > 100 µM | [58] 8.59 µM | [24] 9.91 µM | [59] 1.23 µM | [60] > 57.1 µM | [61] 90.6 µM | [62] 41.6 µM | [27] 67.5 µM | [28] > 72.8 µM | [29] 5.01 µM | [31] 1.46 µM | [63] 41.9 µM | [32] 53.5 µM | [33] > 100 µM | [34] 54 µM | [35] 38.4 µM | [64] > 70 µM | [36] 71.3 µM | [37] 30.3 µM | [38] 10.7 µM | [40] 8.75 µM | [41] > 66.1 µM | [42] > 42 µM | [65] 9.2 µM | [43] 11.3 µM | [44] 38.6 µM | [45] 27.1 µM | [46] 3.73 µM | [49] 10.2 µM | [66] 6.64 µM | [50] > 100 µM | [51] 9.38 µM | [52] > 83.9 µM | [53] 1.7 µM | [54] 1.63 µM
active: [4] 1.01 µM | [6] 0.237 µM | [26] 0.44 µM | [30] 0.596 µM | [39] 0.871 µM | [48] 0.105 µM

Oc1ccc2c(c1)CC[N+]1=C2CCC2CCCC21 (centres undefined) [QUINDONIUM BROMIDE]
> 100 µM: [14]
inactive: [1] > 100 µM | [3] > 100 µM | [4] > 100 µM | [5] > 100 µM | [7] > 100 µM | [8] > 100 µM | [9] > 100 µM | [10] > 100 µM | [11] > 100 µM | [12] > 100 µM | [13] > 100 µM | [17] > 100 µM | [18] > 100 µM | [19] > 100 µM | [58] > 100 µM | [23] > 100 µM | [24] > 100 µM | [25] > 100 µM | [28] > 100 µM | [29] > 100 µM | [30] > 100 µM | [32] > 100 µM | [33] > 100 µM | [34] > 100 µM | [35] > 100 µM | [37] > 100 µM | [38] > 100 µM | [39] > 100 µM | [40] > 100 µM | [41] > 100 µM | [42] > 100 µM | [65] > 100 µM | [43] > 100 µM | [44] > 100 µM | [45] > 100 µM | [46] > 100 µM | [49] > 100 µM | [50] > 100 µM | [53] > 100 µM | [54] > 100 µM
